This is an account of results in US12617773B2, “Azetidin-3-ylmethanol derivatives as CCR6 receptor modulators” (Idorsia Pharmaceuticals Ltd, priority 2020, dated 2026).

The target in the experiment is T1, human CCR6 (Homo sapiens, UniProt P51684).
T1 construct: expressed in transfected cells; host or cells: HEK-293
T1 sequence (P51684 1-374): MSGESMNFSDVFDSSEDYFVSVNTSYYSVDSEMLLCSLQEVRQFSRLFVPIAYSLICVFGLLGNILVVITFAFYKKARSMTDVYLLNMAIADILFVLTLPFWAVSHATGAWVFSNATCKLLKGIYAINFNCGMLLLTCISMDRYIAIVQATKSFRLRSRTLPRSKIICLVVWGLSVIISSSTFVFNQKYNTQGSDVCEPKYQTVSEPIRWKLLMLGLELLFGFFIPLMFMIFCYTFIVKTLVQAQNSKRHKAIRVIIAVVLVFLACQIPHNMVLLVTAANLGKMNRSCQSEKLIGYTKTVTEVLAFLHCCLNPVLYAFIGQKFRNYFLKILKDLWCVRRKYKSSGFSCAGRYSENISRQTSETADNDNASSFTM
Put plainly: FLIPR assay (inhibition of CCL20-induced calcium signal). In kind it is cell-based. Conditions: HEK-293 cells expressing human CCR6; mean values where determined several times; read-out: FLIPR IC50. The procedure:
FLIPR assay: The bioactivity of compounds is tested in a fluorometric imaging plate reader (FLIPR: Molecular Devices) using engineered HEK-293 cells expressing the human CCR6 (GenBank: AY242126). Frozen cells are plated on Poly-L-Lysine precoated 384-well plates 2 days prior to bioassay in DMEM medium supplemented with 10% FCS and 1% Penicillin-Streptomycin. […] This buffer, but lacking the dye, is also used for washing and compound dilution steps (assay buffer). Cells are washed free of excess dye with a wash-station (Biotek), leaving 40 microliter of assay buffer at the end. Cells were incubated for 15 minutes at room temperature in the dark, before adding compounds. Stock solutions of test compounds are made up at a concentration of 10 mM in DMSO, and serially diluted first in DMSO and then transferred in assay buffer to concentrations required for inhibition dose response curves. After a 45-minute incubation period in assay buffer at room temperature, 10 microliters of each compound dilution are transferred from a compound plate to the plate containing the recombinant cells in the FLIPR instrument according to the manufacturer's instructions. After cells and compounds were preincubated for 30 minutes at room temperature in the dark, 10 microliter agonist CCL20 (Peprotech) at a final concentration of 10 nM is added, again using the FLIPR instrument. Changes in fluorescence are monitored before and after addition of the test compounds and agonist. Emission peak values above base level after CCL20 addition are exported after base line subtraction.
The calculated IC50 values may fluctuate depending on the daily assay performance. Fluctuations of this kind are known to those skilled in the art.
A word on the IC50: it is the concentration that inhibits the measured activity by half. `CC(C)c1ccc([C@](O)(c2cncc(N3CC4OCCC4C3=O)c2)C2(C)CN(C)C2)cc1` (mixture of isomers) [Example 210]: the IC50 turned out to be 326 nM.

With `CC(=O)N1CC[C@H](c2nc(-c3cncc([C@@](O)(c4ccc(C(C)C)cc4)C4(C)CN(C)C4)c3)no2)[C@H](C)C1` (mixture of isomers) [Example 478, 1-[cis-4-(3-{5-[(R)-(1,3-Dimethyl-azetidin-3-yl)-hydroxy-(4-isopropyl-phenyl)-methyl]-pyridin-3-yl}-[1,2,4]oxadiazol-5-yl)-3-methyl-piperidin-1-yl]-ethanone], the IC50 is 88.9 nM.

With `CC(C)c1ccc([C@](O)(c2cncc(N3C[C@H](C(C)(C)C)OC3=O)c2)C2(C)CN(C)C2)cc1` (single isomer, unassigned) [Example 167], the IC50 amounted to 66.9 nM.

For `CC(C)c1ccc([C@](O)(c2cncc([C@@H]3CCC(C)(O)C3)c2)C2(C)CN(C)C2)cc1` (single isomer, unassigned) [Example 297], the IC50 is 93.5 nM.

As to `CC(C)c1ccc([C@](O)(c2cncc(-c3noc(C4(C)CC(=O)N(C)C4)n3)c2)C2(C)CN(C)C2)cc1` (single isomer, unassigned) [Example 365], the IC50 turned out to be 147 nM.

As for `CC(C)c1ccc([C@](O)(c2cncc(-c3noc(C4(C)CC(=O)N(C)C4)n3)c2)C2(C)CN(C)C2)cc1` (single isomer, unassigned) [Example 366], the IC50 came out at 165 nM.

With `Cc1cc(C(C)(O)C#Cc2cncc([C@@](O)(c3ccc(C(C)C)cc3)C3(C)CN(C)C3)c2)nn1C` (single isomer, unassigned) [Example 401], the IC50 worked out at 117 nM.

As for `Cc1cc(C(C)(O)C#Cc2cncc([C@@](O)(c3ccc(C(C)C)cc3)C3(C)CN(C)C3)c2)nn1C` (single isomer, unassigned) [Example 402], the IC50 came out at 88.3 nM.

For `CC(C)c1ccc([C@](O)(c2cncc(C#CC(C)(O)c3ccn(C)n3)c2)C2(C)CN(C)C2)cc1` (single isomer, unassigned) [Example 404], the IC50 was determined as 164 nM.

With `CC(C)c1ccc([C@](O)(c2cncc(C#CC(C)(O)c3ccn(C)n3)c2)C2(C)CN(C)C2)cc1` (single isomer, unassigned) [Example 405], the IC50 came out at 102 nM.

In the case of `CC(C)c1ccc([C@](O)(c2cncc(-c3noc(C4CC(=O)N(C)C4)n3)c2)C2(C)CN(C)C2)cc1` (single isomer, unassigned) [Example 509], the IC50 came out at 208 nM.

On to `CCN1CC(c2nc(-c3cncc([C@@](O)(c4ccc(C(C)C)cc4)C4(C)CN(C)C4)c3)no2)CC1=O` (single isomer, unassigned) [Example 510], for which the IC50 is 184 nM.

As for `CCN1CC(c2nc(-c3cncc([C@@](O)(c4ccc(C(C)C)cc4)C4(C)CN(C)C4)c3)no2)CC1=O` (single isomer, unassigned) [Example 511], the IC50 stood at 133 nM.

Turning to `CC(C)c1ccc([C@](O)(c2cncc(-c3noc(C4CC(=O)N(C(C)C)C4)n3)c2)C2(C)CN(C)C2)cc1` (single isomer, unassigned) [Example 512], the concentration for half-maximal inhibition (IC50) is 61.1 nM.

Regarding `CC(C)c1ccc([C@](O)(c2cncc(-c3noc(C4CC(=O)N(C(C)C)C4)n3)c2)C2(C)CN(C)C2)cc1` (single isomer, unassigned) [Example 513], the IC50 is 101 nM.

Turning to `CC(C)c1ccc([C@](O)(c2cncc(-c3noc(C4CCNC(=O)C4)n3)c2)C2(C)CN(C)C2)cc1` (single isomer, unassigned) [Example 515], the IC50 amounted to 181 nM.

For the compound `CC(C)c1ccc([C@](O)(c2cncc(-c3noc(C4CCNC(=O)C4)n3)c2)C2(C)CN(C)C2)cc1` (single isomer, unassigned) [Example 516], the IC50 was determined as 104 nM.

For the compound `COc1cc(C(C)(O)C#Cc2cncc([C@@](O)(c3ccc(C(C)C)cc3)C3(C)CN(C)C3)c2)ncn1` (single isomer, unassigned) [Example 620], the IC50 amounted to 55.3 nM.

With `COc1cc(C(C)(O)C#Cc2cncc([C@@](O)(c3ccc(C(C)C)cc3)C3(C)CN(C)C3)c2)ncn1` (single isomer, unassigned) [Example 622], the IC50 came out at 105 nM.

Regarding `COc1nccc(C(C)(O)C#Cc2cncc([C@@](O)(c3ccc(C(C)C)cc3)C3(C)CN(C)C3)c2)n1` (single isomer, unassigned) [Example 623], the half-inhibitory concentration (IC50) stood at 44.9 nM.

For `COc1nccc(C(C)(O)C#Cc2cncc([C@@](O)(c3ccc(C(C)C)cc3)C3(C)CN(C)C3)c2)n1` (single isomer, unassigned) [Example 624], the IC50 was determined as 81.8 nM.

Consider `Cc1cc(C(C)(O)C#Cc2cncc([C@@](O)(c3ccc(C(C)C)cc3)C3(C)CN(C)C3)c2)nc(C)n1` (single isomer, unassigned) [Example 625], for which the IC50 was determined as 107 nM.

As for `Cc1cc(C(C)(O)C#Cc2cncc([C@@](O)(c3ccc(C(C)C)cc3)C3(C)CN(C)C3)c2)nc(C)n1` (single isomer, unassigned) [Example 626], the IC50 was found to be 111 nM.

In the case of `COc1cc(C(C)(O)C#Cc2cncc([C@@](O)(c3ccc(C(C)C)cc3)C3(C)CN(C)C3)c2)nc(OC)n1` (single isomer, unassigned) [Example 627], the IC50 is 11.5 nM.

With `COc1cc(C(C)(O)C#Cc2cncc([C@@](O)(c3ccc(C(C)C)cc3)C3(C)CN(C)C3)c2)nc(OC)n1` (single isomer, unassigned) [Example 628], the IC50 came to 20.2 nM.

On to `COc1nc(C)cc(C(C)(O)C#Cc2cncc([C@@](O)(c3ccc(C(C)C)cc3)C3(C)CN(C)C3)c2)n1` (single isomer, unassigned) [Example 629], for which the IC50 is 60.9 nM.

With `COc1cc(C(C)(O)C#Cc2cncc([C@@](O)(c3ccc(C(C)C)cc3)C3(C)CN(C)C3)c2)nc(C)n1` (single isomer, unassigned) [Example 630], the IC50 amounted to 61.1 nM.

Turning to `COc1cc(C(C)(O)C#Cc2cncc([C@@](O)(c3ccc(C(C)C)cc3)C3(C)CN(C)C3)c2)nc(C)n1` (single isomer, unassigned) [Example 631], the IC50 amounted to 79.5 nM.

For the compound `CC(C)c1ccc([C@](O)(c2cncc(C#CC(C)(O)c3ccnc(C(F)(F)F)n3)c2)C2(C)CN(C)C2)cc1` (single isomer, unassigned) [Example 652], the IC50 came out at 10.9 nM.

With `CC(C)c1ccc([C@](O)(c2cncc(C#CC(C)(O)c3ccnc(C(F)(F)F)n3)c2)C2(C)CN(C)C2)cc1` (single isomer, unassigned) [Example 653], the IC50 was determined as 10.1 nM.

`CN1CC(F)(C(O)(c2ccc(OC(F)(F)F)cc2)c2cncc(N3CCCC3)c2)C1` (stereo not drawn) [Example 1, (3-Fluoro-1-methyl-azetidin-3-yl)-(5-pyrrolidin-1-yl-pyridin-3-yl)-(4-trifluoromethoxy-phenyl)-methanol]: the IC50 amounted to 114 nM.

As for `CN1CC(C#N)(C(O)(c2ccc(OC(F)(F)F)cc2)c2cncc(N3CCCC3)c2)C1` (stereo not drawn) [Example 2, 3-[Hydroxy-(5-pyrrolidin-1-yl-pyridin-3-yl)-(4-trifluoromethoxy-phenyl)-methyl]-1-methyl-azetidine-3-carbonitrile], the half-maximal inhibitory concentration (IC50) was determined as 147 nM.

On to `CCN1CC(C)([C@](O)(c2ccc(OC(F)(F)F)cc2)c2cncc(N3CCCC3)c2)C1` [Example 3, (R)-(1-Ethyl-3-methyl-azetidin-3-yl)-(5-pyrrolidin-1-yl-pyridin-3-yl)-(4-trifluoromethoxy-phenyl)-methanol], for which the IC50 came out at 28 nM.

`CCCN1CC(C)([C@](O)(c2ccc(OC(F)(F)F)cc2)c2cncc(N3CCCC3)c2)C1` [Example 4]: the IC50 is 36.2 nM.

`CC(C)N1CC(C)([C@](O)(c2ccc(OC(F)(F)F)cc2)c2cncc(N3CCCC3)c2)C1` [Example 5]: the IC50 was 33.3 nM.

Consider `CC1([C@](O)(c2ccc(OC(F)(F)F)cc2)c2cncc(N3CCCC3)c2)CN(CC2CC2)C1` [Example 6], for which the IC50 turned out to be 47.2 nM.

As for `CC1([C@](O)(c2ccc(OC(F)(F)F)cc2)c2cncc(N3CCCC3)c2)CN(C2CCC2)C1` [Example 7], the IC50 amounted to 54.3 nM.

For `CC(C)CN1CC(C)([C@](O)(c2ccc(OC(F)(F)F)cc2)c2cncc(N3CCCC3)c2)C1` [Example 8], the IC50 amounted to 110 nM.

Take `CC1([C@](O)(c2ccc(OC(F)(F)F)cc2)c2cncc(N3CCCC3)c2)CN(C2CC2)C1` [Example 9, (R)-(1-Cyclopropyl-3-methyl-azetidin-3-yl)-(5-pyrrolidin-1-yl-pyridin-3-yl)-(4-trifluoromethoxy-phenyl)-methanol]: the 50% inhibitory concentration (IC50) worked out at 74.7 nM.
